System: 616215-338-R-J1-PDC complex spheroids, viability % test/control
Experiment: Anticancer human tumor 616215-338-R-J1-PDC patient-derived colon adenocarcinoma cell line growth inhibition [CLK]
Conditions: for IC50: curve of first compound; for viability, T/C: stronger effect = lower value
Procedure, shortened: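 Multi-cell-type spheroids combined patient-derived tumor cells with HUVEC endothelial cells and human mesenchymal stem cells. Paired agents were dosed in half-log steps down from about clinical Cmax, or from 10 microM where Cmax was unknown.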

[1] = second compound 0.0316 µM, first compound 0.0316 µM
[2] = second compound 0.0316 µM, first compound 0.1 µM
[3] = second compound 0.0316 µM, first compound 0.316 µM
[4] = second compound 0.0316 µM, first compound 1 µM
[5] = second compound 0.1 µM, first compound 0.0316 µM
[6] = second compound 0.1 µM, first compound 0.1 µM
[7] = second compound 0.1 µM, first compound 0.316 µM
[8] = second compound 0.1 µM, first compound 1 µM
[9] = second compound 0.316 µM, first compound 0.0316 µM
[10] = second compound 0.316 µM, first compound 0.1 µM
[11] = second compound 0.316 µM, first compound 0.316 µM
[12] = second compound 0.316 µM, first compound 1 µM
[13] = second compound 1 µM, first compound 0.0316 µM
[14] = second compound 1 µM, first compound 0.1 µM
[15] = second compound 1 µM, first compound 0.316 µM
[16] = second compound 1 µM, first compound 1 µM
[17] = second compound 3.16 µM, first compound 0.0316 µM
[18] = second compound 3.16 µM, first compound 0.1 µM
[19] = second compound 3.16 µM, first compound 0.316 µM
[20] = second compound 3.16 µM, first compound 1 µM
[21] = second compound 10 µM, first compound 0.0316 µM
[22] = second compound 10 µM, first compound 0.1 µM
[23] = second compound 10 µM, first compound 0.316 µM
[24] = second compound 10 µM, first compound 1 µM
[25] = second compound 0.0316 µM, first compound 3.16 µM
[26] = second compound 0.0316 µM, first compound 10 µM
[27] = second compound 0.1 µM, first compound 3.16 µM
[28] = second compound 0.1 µM, first compound 10 µM
[29] = second compound 0.316 µM, first compound 3.16 µM
[30] = second compound 0.316 µM, first compound 10 µM
[31] = second compound 1 µM, first compound 3.16 µM
[32] = second compound 1 µM, first compound 10 µM
[33] = second compound 3.16 µM, first compound 3.16 µM
[34] = second compound 3.16 µM, first compound 10 µM
[35] = second compound 10 µM, first compound 3.16 µM
[36] = second compound 10 µM, first compound 10 µM
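Note: spheroids exposed to agents for 7 days.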
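Throughout, for viability, T/C: 100% = DMSO vehicle wells.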

## CCc1c2c(nc3ccc(O)cc13)-c1cc3c(c(=O)n1C2)COC(=O)[C@]3(O)CC + CNC(=O)c1ccc(Nc2nc(OC3CCCC3)c3c(-c4ccc5nc(C)oc5c4)c[nH]c3n2)c(OC)c1
Second compound 0.0316 µM
  IC50: 13.5 nM
Second compound 0.1 µM
  IC50: 7.31 nM
Second compound 0.316 µM
  IC50: < 3.16 nM
Second compound 1 µM
  IC50: 3.52 nM
Second compound 3.16 µM
  IC50: < 3.16 nM
Second compound 10 µM
  IC50: < 3.16 nM
Second compound 0.0316 µM, first compound 0.00316 µM
  viability, T/C: 111%
Second compound 0.0316 µM, first compound 0.01 µM
  viability, T/C: 51.1%
[1]
  viability, T/C: 35.8%
[2]
  viability, T/C: 25.6%
[3]
  viability, T/C: 14.6%
[4]
  viability, T/C: 9.31%
Second compound 0.1 µM, first compound 0.00316 µM
  viability, T/C: 56.9%
Second compound 0.1 µM, first compound 0.01 µM
  viability, T/C: 51.3%
[5]
  viability, T/C: 27.3%
[6]
  viability, T/C: 21.5%
[7]
  viability, T/C: 14.6%
[8]
  viability, T/C: 5.13%
Second compound 0.316 µM, first compound 0.00316 µM
  viability, T/C: 37.9%
Second compound 0.316 µM, first compound 0.01 µM
  viability, T/C: 38.9%
[9]
  viability, T/C: 24.8%
[10]
  viability, T/C: 20.2%
[11]
  viability, T/C: 14.6%
[12]
  viability, T/C: 1.77%
Second compound 1 µM, first compound 0.00316 µM
  viability, T/C: 53.5%
Second compound 1 µM, first compound 0.01 µM
  viability, T/C: 28.5%
[13]
  viability, T/C: 18.4%
[14]
  viability, T/C: 17.2%
[15]
  viability, T/C: 11.8%
[16]
  viability, T/C: 1.4%
Second compound 3.16 µM, first compound 0.00316 µM
  viability, T/C: 37%
Second compound 3.16 µM, first compound 0.01 µM
  viability, T/C: 27.3%
[17]
  viability, T/C: 17.1%
[18]
  viability, T/C: 14.9%
[19]
  viability, T/C: 11.8%
[20]
  viability, T/C: 2.58%
Second compound 10 µM, first compound 0.00316 µM
  viability, T/C: 40.6%
Second compound 10 µM, first compound 0.01 µM
  viability, T/C: 25.2%
[21]
  viability, T/C: 18.5%
[22]
  viability, T/C: 17.3%
[23]
  viability, T/C: 11.6%
[24]
  viability, T/C: 1.03%

## CC(CO)NC(=O)c1cc(-c2ccc(Cl)cc2)nn(-c2cnn(C)c2)c1=O (stereo unspecified) + CN1CCN(c2cc(C(=O)Nc3cc4cc(-c5cnn(C)c5)ccc4cn3)ccn2)CC1
Second compound 0.0316 µM
  IC50: > 10000 nM
Second compound 0.1 µM
  IC50: > 10000 nM
Second compound 0.316 µM
  IC50: < 31.6 nM
Second compound 1 µM
  IC50: < 31.6 nM
Second compound 3.16 µM
  IC50: < 31.6 nM
Second compound 10 µM
  IC50: < 31.6 nM
[1]
  viability, T/C: 104%
[2]
  viability, T/C: 89.5%
[3]
  viability, T/C: 91.5%
[4]
  viability, T/C: 91.6%
[25]
  viability, T/C: 93%
[26]
  viability, T/C: 100%
[5]
  viability, T/C: 94.7%
[6]
  viability, T/C: 108%
[7]
  viability, T/C: 90.6%
[8]
  viability, T/C: 93.6%
[27]
  viability, T/C: 97.3%
[28]
  viability, T/C: 85.7%
[9]
  viability, T/C: 31.3%
[10]
  viability, T/C: 41.5%
[11]
  viability, T/C: 26.3%
[12]
  viability, T/C: 27.7%
[29]
  viability, T/C: 33.1%
[30]
  viability, T/C: 32.4%
[13]
  viability, T/C: 0.18%
[14]
  viability, T/C: 0.19%
[15]
  viability, T/C: 0.23%
[16]
  viability, T/C: 0.14%
[31]
  viability, T/C: 0.57%
[32]
  viability, T/C: 1.49%
[17]
  viability, T/C: 0.15%
[18]
  viability, T/C: 0.42%
[19]
  viability, T/C: 0.16%
[20]
  viability, T/C: 1.94%
[33]
  viability, T/C: 2.32%
[34]
  viability, T/C: 0.14%
[21]
  viability, T/C: 1.31%
[22]
  viability, T/C: 0.25%
[23]
  viability, T/C: 0.22%
[24]
  viability, T/C: 0.24%
[35]
  viability, T/C: 1.28%
[36]
  viability, T/C: 0.23%

## CCCS(=O)(=O)Nc1ccc(F)c(C(=O)c2c[nH]c3ncc(-c4ccc(Cl)cc4)cc23)c1F + CNC(=O)c1ccc(Nc2nc(OC3CCCC3)c3c(-c4ccc5nc(C)oc5c4)c[nH]c3n2)c(OC)c1
Second compound 0.0316 µM
  IC50: 6930 nM
Second compound 0.1 µM
  IC50: 698 nM
Second compound 0.316 µM
  IC50: < 31.6 nM
Second compound 1 µM
  IC50: < 31.6 nM
Second compound 3.16 µM
  IC50: < 31.6 nM
Second compound 10 µM
  IC50: < 31.6 nM
[1]
  viability, T/C: 94.6%
[2]
  viability, T/C: 102%
[3]
  viability, T/C: 98.9%
[4]
  viability, T/C: 89.9%
[25]
  viability, T/C: 93.8%
[26]
  viability, T/C: 29.6%
[5]
  viability, T/C: 55%
[6]
  viability, T/C: 62.2%
[7]
  viability, T/C: 44.3%
[8]
  viability, T/C: 53.6%
[27]
  viability, T/C: 34.6%
[28]
  viability, T/C: 13%
[9]
  viability, T/C: 42.4%
[10]
  viability, T/C: 37.1%
[11]
  viability, T/C: 39.7%
[12]
  viability, T/C: 41.5%
[29]
  viability, T/C: 27%
[30]
  viability, T/C: 14.8%
[13]
  viability, T/C: 43.8%
[14]
  viability, T/C: 38.8%
[15]
  viability, T/C: 42.3%
[16]
  viability, T/C: 30.9%
[31]
  viability, T/C: 27.2%
[32]
  viability, T/C: 11.6%
[17]
  viability, T/C: 41.4%
[18]
  viability, T/C: 44.3%
[19]
  viability, T/C: 41.4%
[20]
  viability, T/C: 31.6%
[33]
  viability, T/C: 22%
[34]
  viability, T/C: 10.1%
[21]
  viability, T/C: 40.4%
[22]
  viability, T/C: 34.4%
[23]
  viability, T/C: 38.3%
[24]
  viability, T/C: 27.9%
[35]
  viability, T/C: 21.4%
[36]
  viability, T/C: 8.93%

From PubChem BioAssay AID2060610 (Molecular Pharmacology Branch, DTP, NCI, 2025)
